Where “and” joins values, the source holds several entries; their conditions need not be identical. Equal values may be shown once.
Test system: 648629-189-R-J1-PDC complex spheroids viability
Test: Anticancer human tumor 648629-189-R-J1-PDC patient-derived bladder carcinoma cell line growth inhibition [CLK]
Details: for viability, T/C: stronger effect = lower value
In short: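 Patient-derived tumor cells grown as complex spheroids with HUVEC endothelial cells and mesenchymal stem cells, treated with drug combinations. Concentrations descend in half-log steps from near clinical Cmax, or from 10 microM if Cmax unknown.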

[1] = curve of first compound, second compound 0.0316 µM
[2] = curve of first compound, second compound 0.1 µM
[3] = curve of first compound, second compound 0.316 µM
[4] = curve of first compound, second compound 1 µM
[5] = curve of first compound, second compound 3.16 µM
[6] = curve of first compound, second compound 10 µM
[7] = second compound 0.0316 µM, first compound 0.0316 µM
[8] = second compound 0.0316 µM, first compound 0.1 µM
[9] = second compound 0.1 µM, first compound 0.0316 µM
[10] = second compound 0.1 µM, first compound 0.1 µM
[11] = second compound 0.316 µM, first compound 0.0316 µM
[12] = second compound 0.316 µM, first compound 0.1 µM
[13] = second compound 1 µM, first compound 0.0316 µM
[14] = second compound 1 µM, first compound 0.1 µM
[15] = second compound 3.16 µM, first compound 0.0316 µM
[16] = second compound 3.16 µM, first compound 0.1 µM
[17] = second compound 10 µM, first compound 0.0316 µM
[18] = second compound 10 µM, first compound 0.1 µM
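Throughout, for viability, T/C: drug exposure lasted seven days before viability readout; 100% = DMSO vehicle control wells.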

In the case of `C=CC(=O)Nc1cc(Nc2nccc(-c3cn(C)c4ccccc34)n2)c(OC)cc1N(C)CCN(C)C` + CN1CCN(c2cc(C(=O)Nc3cc4cc(-c5cnn(C)c5)ccc4cn3)ccn2)CC1, the IC50 [1] is reported as > 300 nM, the IC50 [2] is reported as > 300 nM and the IC50 [3] is reported as < 0.949 nM. For the same molecule, the IC50 [4] was < 0.949 nM, the IC50 [5] was < 0.949 nM and the IC50 [6] was < 0.949 nM. For the same molecule, the viability, T/C (second compound 0.0316 µM, first compound 0.000949 µM) was 104%, the viability, T/C (second compound 0.0316 µM, first compound 0.003 µM) was 109% and the viability, T/C (second compound 0.0316 µM, first compound 0.00949 µM) was 112%. It also gave a viability, T/C (second compound 0.0316 µM, first compound 0.03 µM) of 115%, a viability, T/C (second compound 0.0316 µM, first compound 0.0949 µM) of 110% and a viability, T/C (second compound 0.0316 µM, first compound 0.3 µM) of 91.6%. It also gave a viability, T/C (second compound 0.1 µM, first compound 0.000949 µM) of 104%, a viability, T/C (second compound 0.1 µM, first compound 0.003 µM) of 117% and a viability, T/C (second compound 0.1 µM, first compound 0.00949 µM) of 103%. For the same molecule, the viability, T/C (second compound 0.1 µM, first compound 0.03 µM) was 103%, the viability, T/C (second compound 0.1 µM, first compound 0.0949 µM) was 99.1% and the viability, T/C (second compound 0.1 µM, first compound 0.3 µM) was 93%. The viability, T/C (second compound 0.316 µM, first compound 0.000949 µM) was 31.4%, the viability, T/C (second compound 0.316 µM, first compound 0.003 µM) was 42.5% and the viability, T/C (second compound 0.316 µM, first compound 0.00949 µM) was 40.7%. For the same molecule, the viability, T/C (second compound 0.316 µM, first compound 0.03 µM) was 35.6%, the viability, T/C (second compound 0.316 µM, first compound 0.0949 µM) was 33.8% and the viability, T/C (second compound 0.316 µM, first compound 0.3 µM) was 23.6%. For the same molecule, the viability, T/C (second compound 1 µM, first compound 0.000949 µM) was 0.28%, the viability, T/C (second compound 1 µM, first compound 0.003 µM) was 0.35% and the viability, T/C (second compound 1 µM, first compound 0.00949 µM) was 1.06%. For the same molecule, the viability, T/C (second compound 1 µM, first compound 0.03 µM) was 0.49%, the viability, T/C (second compound 1 µM, first compound 0.0949 µM) was 0.24% and the viability, T/C (second compound 1 µM, first compound 0.3 µM) was 0.19%. It also gave a viability, T/C (second compound 3.16 µM, first compound 0.000949 µM) of 0.13%, a viability, T/C (second compound 3.16 µM, first compound 0.003 µM) of 0.19% and a viability, T/C (second compound 3.16 µM, first compound 0.00949 µM) of 0.15%. For the same molecule, the viability, T/C (second compound 3.16 µM, first compound 0.03 µM) was 0.14%, the viability, T/C (second compound 3.16 µM, first compound 0.0949 µM) was 0.82% and the viability, T/C (second compound 3.16 µM, first compound 0.3 µM) was 0.77%. It also gave a viability, T/C (second compound 10 µM, first compound 0.000949 µM) of 0.24%, a viability, T/C (second compound 10 µM, first compound 0.003 µM) of 2.1% and a viability, T/C (second compound 10 µM, first compound 0.00949 µM) of 0.19%. It also gave a viability, T/C (second compound 10 µM, first compound 0.03 µM) of 0.23%, a viability, T/C (second compound 10 µM, first compound 0.0949 µM) of 0.24% and a viability, T/C (second compound 10 µM, first compound 0.3 µM) of 0.21%.

For `C=CC(=O)N1CCN(c2nc(=O)n(-c3c(C)ccnc3C(C)C)c3nc(-c4c(O)cccc4F)c(F)cc23)C(C)C1` (stereo not drawn) + CN1CCN(c2cc(C(=O)Nc3cc4cc(-c5cnn(C)c5)ccc4cn3)ccn2)CC1, the IC50 [1] was > 10000 nM, the IC50 [2] was > 10000 nM and the IC50 [3] was 1030 nM. For the same molecule, the IC50 [4] was < 31.6 nM, the IC50 [5] was < 31.6 nM and the IC50 [6] was < 31.6 nM. It also gave a viability, T/C [7] of 109%, a viability, T/C [8] of 113% and a viability, T/C (second compound 0.0316 µM, first compound 0.316 µM) of 104%. It also gave a viability, T/C (second compound 0.0316 µM, first compound 1 µM) of 115%, a viability, T/C (second compound 0.0316 µM, first compound 3.16 µM) of 108% and a viability, T/C (second compound 0.0316 µM, first compound 10 µM) of 89%. It also gave a viability, T/C [9] of 89.6%, a viability, T/C [10] of 99.5% and a viability, T/C (second compound 0.1 µM, first compound 0.316 µM) of 99.4%. For the same molecule, the viability, T/C (second compound 0.1 µM, first compound 1 µM) was 114%, the viability, T/C (second compound 0.1 µM, first compound 3.16 µM) was 98.9% and the viability, T/C (second compound 0.1 µM, first compound 10 µM) was 102%. It also gave a viability, T/C [11] of 47.3%, a viability, T/C [12] of 55.5% and a viability, T/C (second compound 0.316 µM, first compound 0.316 µM) of 50.5%. For the same molecule, the viability, T/C (second compound 0.316 µM, first compound 1 µM) was 50.4%, the viability, T/C (second compound 0.316 µM, first compound 3.16 µM) was 38% and the viability, T/C (second compound 0.316 µM, first compound 10 µM) was 20.2%. It also gave a viability, T/C [13] of 0.58%, a viability, T/C [14] of 0.57% and a viability, T/C (second compound 1 µM, first compound 0.316 µM) of 0.3%. The viability, T/C (second compound 1 µM, first compound 1 µM) was 0.5%, the viability, T/C (second compound 1 µM, first compound 3.16 µM) was 0.34% and the viability, T/C (second compound 1 µM, first compound 10 µM) was 0.13%. It also gave a viability, T/C [15] of 0.13%, a viability, T/C [16] of 0.17% and a viability, T/C (second compound 3.16 µM, first compound 0.316 µM) of 0.14%. For the same molecule, the viability, T/C (second compound 3.16 µM, first compound 1 µM) was 0.13%, the viability, T/C (second compound 3.16 µM, first compound 3.16 µM) was 0.11% and the viability, T/C (second compound 3.16 µM, first compound 10 µM) was 0.11%. The viability, T/C [17] was 0.15%, the viability, T/C [18] was 0.19% and the viability, T/C (second compound 10 µM, first compound 0.316 µM) was 0.16%. The viability, T/C (second compound 10 µM, first compound 1 µM) was 0.18%, the viability, T/C (second compound 10 µM, first compound 3.16 µM) was 0.22% and the viability, T/C (second compound 10 µM, first compound 10 µM) was 0.15%.

For `Cn1ncnc1[C@H]1c2n[nH]c(=O)c3cc(F)cc(c23)N[C@@H]1c1ccc(F)cc1` + CN1CCN(c2cc(C(=O)Nc3cc4cc(-c5cnn(C)c5)ccc4cn3)ccn2)CC1, the IC50 [1] was > 100 nM, the IC50 [2] was > 100 nM and the IC50 [3] was < 0.316 nM. The IC50 [4] was < 0.316 nM, the IC50 [5] was < 0.316 nM and the IC50 [6] was < 0.316 nM. For the same molecule, the viability, T/C (second compound 0.0316 µM, first compound 0.000316 µM) was 129%, the viability, T/C (second compound 0.0316 µM, first compound 0.001 µM) was 116% and the viability, T/C (second compound 0.0316 µM, first compound 0.00316 µM) was 107%. It also gave a viability, T/C (second compound 0.0316 µM, first compound 0.01 µM) of 90.2%, a viability, T/C [7] of 87.8% and a viability, T/C [8] of 69.7%. For the same molecule, the viability, T/C (second compound 0.1 µM, first compound 0.000316 µM) was 111%, the viability, T/C (second compound 0.1 µM, first compound 0.001 µM) was 97.2% and the viability, T/C (second compound 0.1 µM, first compound 0.00316 µM) was 94.8%. For the same molecule, the viability, T/C (second compound 0.1 µM, first compound 0.01 µM) was 93.5%, the viability, T/C [9] was 87.7% and the viability, T/C [10] was 81.2%. The viability, T/C (second compound 0.316 µM, first compound 0.000316 µM) was 46%, the viability, T/C (second compound 0.316 µM, first compound 0.001 µM) was 39.1% and the viability, T/C (second compound 0.316 µM, first compound 0.00316 µM) was 43.5%. For the same molecule, the viability, T/C (second compound 0.316 µM, first compound 0.01 µM) was 40.1%, the viability, T/C [11] was 35.3% and the viability, T/C [12] was 35.6%. For the same molecule, the viability, T/C (second compound 1 µM, first compound 0.000316 µM) was 0.38%, the viability, T/C (second compound 1 µM, first compound 0.001 µM) was 0.8% and the viability, T/C (second compound 1 µM, first compound 0.00316 µM) was 0.73%. The viability, T/C (second compound 1 µM, first compound 0.01 µM) was 0.22%, the viability, T/C [13] was 0.2% and the viability, T/C [14] was 1.42%. It also gave a viability, T/C (second compound 3.16 µM, first compound 0.000316 µM) of 0.1%, a viability, T/C (second compound 3.16 µM, first compound 0.001 µM) of 0.5% and a viability, T/C (second compound 3.16 µM, first compound 0.00316 µM) of 0.12%. It also gave a viability, T/C (second compound 3.16 µM, first compound 0.01 µM) of 0.08%, a viability, T/C [15] of 0.08% and a viability, T/C [16] of 0.16%. The viability, T/C (second compound 10 µM, first compound 0.000316 µM) was 0.12%, the viability, T/C (second compound 10 µM, first compound 0.001 µM) was 0.13% and the viability, T/C (second compound 10 µM, first compound 0.00316 µM) was 0.82%. It also gave a viability, T/C (second compound 10 µM, first compound 0.01 µM) of 0.14%, a viability, T/C [17] of 0.13% and a viability, T/C [18] of 0.15%.

In the case of `CC(Nc1ccc2c(c1)OCCn1cc(N3C(=O)OCC3C(F)F)nc1-2)C(N)=O` (stereo not drawn), the viability, T/C (compound 0.0316 µM) is reported as 106% and 92.8%, the viability, T/C (compound 0.1 µM) is reported as 99.8% and 111% and the viability, T/C (compound 0.316 µM) is reported as 89% and 83.4%. For the same molecule, the viability, T/C (compound 1 µM) was 82.8% and 76.1%, the viability, T/C (compound 3.16 µM) was 54.4% and 56.5% and the viability, T/C (compound 10 µM) was 38.2% and 46.5%. The IC50 (curve of compound) was 4860 nM and 6820 nM.

Reference: PubChem BioAssay AID2060602 (Molecular Pharmacology Branch, DTP, NCI, 2025)
